From US6090987A, “Metal-ligand complex catalyzed processes” (Union Carbide Chemicals & Plastics Technology Corporation, priority 1998, dated 2000)

How the values were obtained:
[1] = Propylene hydroformylation rate and colour of (TPP)3 Rh(CO)H catalyst after thermal treatment; conditions: for hydroformylation rate: 100° C.
Procedure: TPP is triphenylphosphine. 15 grams of this bright yellow solution was charged to a Fisher Porter bottle under inert gas. To this solution was added 20 psi of butadiene with stirring. The pressure dropped as the butadiene dissolved into the solution. The reactor was repressured twice with butadiene (20 psig) and then the reaction was place under a total of 45 psig with nitrogen. The solution was heated to 120° C. for 15 minutes. […] At ambient temperature, the reaction was placed under vacuum for 4 hours to remove any excess butadiene.
Since the solvent has a very high boiling point, the concentration of rhodium was assumed to have remained unchanged while under vacuum. Indeed, no change in volume was detected visually while under vacuum. 15.0 milliliters of the 275 parts per million solution was charged to a 100 milliliter autoclave.
This example is a control for Example 23. 15 grams of the catalyst solution prepared in Example 23 was charged to a Fisher Porter bottle under inert gas. 45 psig of nitrogen was added to the reaction vessel, then the reaction was heated to 120° C. for 15 minutes. […] 15.0 milliliters of the 275 parts per million solution was charged to a 100 milliliter autoclave.
A catalyst solution was prepared by adding 113 milligrams of (TPP)3 Rh(CO)H to 40.4 grams Filmer IBT® available from Union Carbide Corporation, Danbury, Conn., resulting in a rhodium concentration of 312 parts per million. At this point, the rhodium complex was a suspended in the solvent. Approximately 20 grams of this solution of (TPP)3 Rh(CO)H in tetraglyme was charged to a Fisher Porter bottle under inert gas. To this solution was added 30 psi of butadiene with stirring. The pressure dropped to 20 psig as the butadiene dissolved into the solution. The reactor was repressured twice with butadiene (30 psig) and then the pressure was adjusted to 60 psig with nitrogen. The solution was placed into 140° C. oil bath, which caused the reaction to become homogeneous within a minute. The reaction was maintained at 140° C. for 50 minutes. […] The reaction vessel was removed from the oil bath and the butadiene was vented from the reactor while the reaction was hot. After gas evolution ceased, the reaction vessel was placed carefully placed under dynamic vacuum until gas evolution had ceased for 10 minutes. The reaction was then placed under a slight positive pressure of nitrogen. […] 15.0 milliliters of the 284 parts per million solution was charged to a 100 milliliter autoclave.
This example serves as a control for Example 25. Approximately 20 grams of the solution prepared in Example 25 was charged to a Fisher Porter bottle under inert gas. 60 psig of nitrogen was added to the reaction vessel, then the reaction was heated to 140° C. for approximately 110 minutes. […] This solution was place into and out of the oil bath at the same time as the solution in Example 25. After thermal treatment, 10 weight percent of triphenylphosphine was added to the reaction mixture. […] 15 milliliters of the 284 parts per million solution was charged to a 100 milliliter autoclave.

[2] = Residual propylene hydroformylation activity after heat treatment, Ligand F catalyst (Table 1)
Procedure: A catalyst solution (100 milliliters) was generated in a six ounce Fisher Porter Bottle by dissolving 0.063 grams of rhodium dicarbonyl 2,4-pentanedionate, 0.8 grams of Ligand F, 20 grams of n-butyraldehyde, and 78.7 grams of tetraethylene glycol dimethyl ether, subsequently alternately evacuating and flushing with nitrogen; and finally adding 60 psi of CO:H2, and placing the bottles in a 100° C. oil bath for 1 hour.
After closing the reactor, the system was again purged with nitrogen and place in an oil bath heated to 100° C. The hydroformylation reaction in each experiment was conducted at a total gas pressure of 160 psig. The target partial pressure of hydrogen, carbon monoxide, and propylene being about 45 psia, 45 psia, and 5 psia respectively, with the remainder being nitrogen. The flows of the feed gases (carbon monoxide, hydrogen, propylene, and nitrogen) were controlled individually with mass flow meters. The feed gases were dispersed into the precursor solution via stainless steel 7-micron filters used as spargers. The unreacted portion of the feed gases stripped out the product aldehydes. Each experiment was operated for 24 hours under the above conditions. The activity is defined as the observed reaction rate divided by the predicted reaction rate. The reaction rates are expressed in terms of gram moles per liter per hour.
The same procedure as in Example 2 was followed with the exception that a slow stream of 1,2-propadiene was purged through the initially generated catalyst solution for 5 minutes. Excess was then removed by alternately evacuating and flushing with nitrogen. The resulting solution was heated at 125° C. as in Example 2, and 20 milliliters of the resulting solution was transferred to a glass reactor as in Example 2 and the activity determined.
The same procedure as in Example 3 was followed except 2 milliliters of 1,3-butadiene was added to the generated catalyst and stirred for 5 minutes. Excess 1,3-butadiene was then removed by alternate evacuation and flushing with nitrogen. The resulting solution was heated at 125° C. as in Example 2, and 20 milliliters of the resulting solution was transferred to a glass reactor as in Example 2 and the activity determined.
The same procedure as in Example 4 was followed with the exception that 50 milliliters of a catalyst solution generated as in Example 2 was treated with 0.5 milliliters of 2-methyl-1,3-butadiene (isoprene) in place of 1,3-butadiene.
A catalyst solution (20 milliliters) was generated in a Fisher Porter Bottle as in Example 2 under 60 psi CO:H2 for 1 hour, then cooled to room temperature and treated with 0.5 milliliters of 1,3-butadiene. The solution was removed from the Fisher Bottle by hypodermic syringe and transferred to a 100 milliliter stirred stainless vessel and maintained at 140° C. under 15 psi nitrogen for 14 hours. The resulting solution was then transferred to the glass reactors as in Example 2, and the residual catalyst activity measured. […]
The same procedure as in Example 8 was followed except allene was employed in place of 1,3-butadiene, and the resulting solution heated at 140° C. for 48 hours without removing excess allene.
A 20 milliliter sample of freshly generated catalyst solution (prepared as in Example 2) was charged to the glass reactors and the activity measured.
The same procedure as in Example 8 was followed except 0.4 grams of 1,3-cyclohexadiene was employed in place of 1,3-butadiene.

[3] = 125° C./24 hours, no excess diene
[4] = 140° C./14 hours, excess diene present
[5] = 140° C./48 hours, excess diene present

**Q.** Which “color change of catalyst solution” value ([1]; 120° C. for 15 minutes under butadiene/nitrogen) does the source give for C=CC=C [Butadiene, 1,3-butadiene] here?
**A.** No color change was observed

**Q.** What about the “color of catalyst solution” value ([1]; 140° C. for 50 minutes under butadiene/nitrogen) of the same compound?
**A.** maintained a bright yellow color

**Q.** And the “color change of catalyst solution” value ([1]; 140° C. for further 60 minutes, butadiene removed)?
**A.** no observable color change

**Q.** And the hydroformylation rate ([1]; after 120° C. for 15 minutes with butadiene, 275 ppm Rh, 9.1 wt% triphenylphosphine, 115 psig)?
**A.** 1.4 gmol/L-h

**Q.** What about the hydroformylation rate ([1]; after 140° C. for 50 minutes with butadiene and 60 minutes after venting, 284 ppm Rh, 95 psig) of the same compound?
**A.** 1.0 gmol/L-h

**Q.** What about the “% Activity” value [2, 3] of the same compound?
**A.** 102%

**Q.** What about the “Final Rate” value [2, 3] of the same compound?
**A.** 2.23 gram moles per liter per hour

**Q.** And the “% Activity” value [2, 4]?
**A.** 25.2%

**Q.** And the “Final Rate” value [2, 4]?
**A.** 0.55 gram moles per liter per hour

**Q.** And the “% Activity” value [2, 5]?
**A.** 96.3%

**Q.** What about the “Final Rate” value [2, 5] of the same compound?
**A.** 2.10 gram moles per liter per hour
